Measured values as given in patent publication US20240270715A1, “INHIBITORS OF TRANSGLUTAMINASES” (ZEDIRA GMBH, priority 2021, published 2024).

Legend:
[1] = molecular target: T1, recombinant human transglutaminase 2 (Homo sapiens, UniProt P21980); assay: Transglutaminase assay: incorporation of dansylcadaverine into dimethylcasein (DCC-assay); type: biochemical; conditions: recombinant human TG2 10 nM, dansylcadaverine/dimethylcasein; read-out: IC50 TG2
T1 sequence (P21980 1-687): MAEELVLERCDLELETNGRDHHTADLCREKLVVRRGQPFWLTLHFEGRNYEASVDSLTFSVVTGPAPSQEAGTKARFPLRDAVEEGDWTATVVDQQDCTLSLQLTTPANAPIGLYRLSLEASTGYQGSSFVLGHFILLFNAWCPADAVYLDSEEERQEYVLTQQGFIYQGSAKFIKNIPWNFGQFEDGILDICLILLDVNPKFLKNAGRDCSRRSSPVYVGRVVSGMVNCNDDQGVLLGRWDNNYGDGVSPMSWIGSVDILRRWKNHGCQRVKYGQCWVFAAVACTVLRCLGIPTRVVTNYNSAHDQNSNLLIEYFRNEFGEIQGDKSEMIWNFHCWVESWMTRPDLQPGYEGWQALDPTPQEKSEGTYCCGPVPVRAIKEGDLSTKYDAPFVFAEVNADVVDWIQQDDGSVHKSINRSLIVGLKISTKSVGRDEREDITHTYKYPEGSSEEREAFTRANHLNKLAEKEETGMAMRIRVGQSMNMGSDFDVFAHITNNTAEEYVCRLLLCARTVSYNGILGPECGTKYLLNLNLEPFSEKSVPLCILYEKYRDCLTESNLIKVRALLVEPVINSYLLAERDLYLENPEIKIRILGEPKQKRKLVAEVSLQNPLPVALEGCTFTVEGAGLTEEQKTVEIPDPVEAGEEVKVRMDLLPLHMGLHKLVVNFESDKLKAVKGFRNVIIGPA
How it was run: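 Recombinant human TG2 (10 nM final) incorporates dansylcadaverine (16.7 μM) into N,N-dimethylcasein (4 μM) in Tris-HCl buffer, pH 8.0, with 10 mM CaCl2 and 10 mM glutathione. Fluorescence (λex 330, λem 500 nm) followed 30 min. The slope between 20–30 min gives activity versus DMSO control, and IC50 comes from the concentration–activity plot.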

[2] = Log D by shake flask method (octanol / PBS pH 7.4, HPLC); type: physicochemical; conditions: octanol / PBS pH 7.4, shake flask; read-out: logD
How it was run: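 Shake-flask partitioning of compound between octanol and PBS at pH 7.4, with phase concentrations quantified by HPLC. The value reported is Log D.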

[3] = Caco-2 permeability assay (CacoReady kit); type: in vitro ADME; conditions: human
How it was run: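 Apparent permeability coefficients (Papp) were measured across Caco-2 cell barriers using a ready-to-use kit run per the supplier's protocol. Values serve as a predictor of oral/intestinal bioavailability.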

Row | IC50 [1] | logD [2] | Papp [3] | Compound
1 | 150 to 600 nM | < 1 | 1 to 10 ×10⁻⁶ cm/s | CCNC(=O)C(=O)CC[C@H](NC(=O)c1cn(C)nn1)C(=O)Nc1cccn(CC(=O)N[C@@H]2C[C@H]3CC[C@]2(C)C3(C)C)c1=O [Compound I-75, (S)-N1-ethyl-5-(1-methyl-1H-1,2,3-triazole-4-carboxamido)-2-oxo-N6-(2-oxo-1-(2-oxo-2-((1R,2R,4R)-1,7,7-trimethylbicyclo[2.2.1]heptan-2-ylamino)ethyl)-1,2-dihydropyridin-3-yl)hexanediamide]
2 | 150 to 600 nM | 1 to 3 | < 1 ×10⁻⁶ cm/s | CCNC(=O)C(=O)CC[C@H](NC(=O)c1cnn(C)c1)C(=O)Nc1cccn(CC(=O)NC23CC4CC5C2C[C@@H]2C[C@H]5C(C4)[C@H]3C2)c1=O [Compound I-79, (S)-N1-ethyl-N6-(1-(2-(diamantane-1-amino)-2-oxoethyl)-2-oxo-1,2-dihydropyridin-3-yl)-5-(1-methyl-1H-pyrazole-4-carboxamido)-2-oxohexanediamide]
3 | 150 to 600 nM | < 1 | < 1 ×10⁻⁶ cm/s | CCNC(=O)C(=O)CC[C@H](NC(=O)c1snnc1C1CC1)C(=O)Nc1cccn(CC23CC4CC(CC(O)(C4)C2)C3)c1=O [Compound I-82, (S)-N1-(1-((3-hydroxy-1-adamantyl)methyl)-2-oxo-1,2-dihydropyridin-3-yl)-2-(4-cyclopropyl-1,2,3-thiadiazole-5-carboxamido)-N6-ethyl-5-oxohexanediamide]
4 | 150 to 600 nM | 3 to 5 | < 1 ×10⁻⁶ cm/s | CCNC(=O)C(=O)CC[C@H](NC(=O)c1cnsn1)C(=O)Nc1cccn(CC23CC4CC(CC(Br)(C4)C2)C3)c1=O [Compound I-83, (S)-N1-(1-((3-bromo-1-adamantyl)methyl)-2-oxo-1,2-dihydropyridin-3-yl)-N6-ethyl-5-oxo-2-(1,2,5-thiadiazole-3-carboxamido)hexanediamide]
5 | 600 to 3500 nM | 3 to 5 | 1 to 10 ×10⁻⁶ cm/s | CCNC(=O)C(=O)CC[C@H](NC(=O)c1c[nH]cc1C(C)(C)C)C(=O)Nc1cccn(CCC23CC4CC(CC(C4)C2)C3)c1=O [Compound I-85]
6 | 600 to 3500 nM | 3 to 5 | 1 to 10 ×10⁻⁶ cm/s | CCNC(=O)C(=O)CC[C@H](NC(=O)c1cc(C#N)cn1C)C(=O)Nc1cccn(CCCC23CC4CC(CC(C4)C2)C3)c1=O [Compound I-86]
7 | < 150 nM | < 1 | 1 to 10 ×10⁻⁶ cm/s | CCNC(=O)C(=O)CC[C@H](NC(=O)c1oc2ccccc2c1C)C(=O)Nc1cccn(CC(=O)NC23CC(C2)C3)c1=O [Compound I-88, (S)-N1-(1-(2-(bicyclo[1.1.1]pentan-1-ylamino)-2-oxoethyl)-2-oxo-1,2-dihydropyridin-3-yl)-N6-ethyl-2-(3-methylbenzofuran-2-carboxamido)-5-oxohexanediamide]
8 | < 150 nM | < 1 | < 1 ×10⁻⁶ cm/s | CCNC(=O)C(=O)CC[C@H](NC(=O)c1coc(C(C)=O)n1)C(=O)Nc1cccn(CC(=O)NC23CC(C2)C3)c1=O [Compound I-89, (S)-2-(2-acetyloxazole-4-carboxamido)-N1-(1-(2-(bicyclo[1.1.1]pentan-1-ylamino)-2-oxoethyl)-2-oxo-1,2-dihydropyridin-3-yl)-N6-ethyl-5-oxohexanediamide]
9 | < 150 nM | < 1 | 1 to 10 ×10⁻⁶ cm/s | CCNC(=O)C(=O)CC[C@H](NC(=O)c1cnc(C(C)C)o1)C(=O)Nc1cccn(CC(=O)NC23CCC(C2)C3)c1=O [Compound I-90, (S)-N1-(1-(2-(bicyclo[2.1.1]hexan-1-ylamino)-2-oxoethyl)-2-oxo-1,2-dihydropyridin-3-yl)-N6-ethyl-2-(2-isopropyloxazole-5-carboxamido)-5-oxohexanediamide]
10 | 150 to 600 nM | < 1 | < 1 ×10⁻⁶ cm/s | CCNC(=O)C(=O)CC[C@H](NC(=O)C1CCc2ccccc2C1)C(=O)Nc1cccn(CC(=O)NC2C3CC4CC2CC(C(=O)N(C)C)(C4)C3)c1=O (stereo partly drawn) [Compound I-93, (5S)-N1-ethyl-N6-(1-(2-(4-aminoadamantane-N,N-dimethyl-1-carboxamide)-2-oxoethyl)-2-oxo-1,2-dihydropyridin-3-yl)-2-oxo-5-(1,2,3,4-tetrahydronaphthalene-2-carboxamido)hexanediamide]
11 | 150 to 600 nM | 1 to 3 | 1 to 10 ×10⁻⁶ cm/s | CCNC(=O)C(=O)CC[C@H](NC(=O)c1c[nH]c2ccccc12)C(=O)Nc1cccn(CC(=O)NC2C3CC4CC(C3)CC2C4)c1=O (stereo partly drawn) [Compound I-95, (S)-N1-ethyl-5-(1H-indole-3-carboxamido)-N6-(1-(2-(2-adamantylamino)-2-oxoethyl)-2-oxo-1,2-dihydropyridin-3-yl)-2-oxohexanediamide]

More lines, now with the values behind:

Row | Compound | IC50 [1] | logD [2] | Papp [3]
12 | CCNC(=O)C(=O)CC[C@H](NC(=O)c1ncn(C)n1)C(=O)Nc1cccn(CC(=O)N[C@@H]2C[C@@H]3C[C@H]([C@H]2C)C3(C)C)c1=O [Compound I-76, (S)-N1-ethyl-5-(1-methyl-1H-1,2,4-triazole-3-carboxamido)-2-oxo-N6-(2-oxo-1-(2-oxo-2-((1R,2R,3R,5S)-2,6,6-trimethylbicyclo[3.1.1]heptan-3-ylamino)ethyl)-1,2-dihydropyridin-3-yl)hexanediamide] | 150 to 600 nM | 1 to 3 | < 1 ×10⁻⁶ cm/s
13 | CCNC(=O)C(=O)CC[C@H](NC(=O)c1coc2ccccc12)C(=O)Nc1cccn(CC(=O)N[C@H]2C[C@H]3C[C@@H]([C@@H]2C)C3(C)C)c1=O [Compound I-77, (S)-2-(benzofuran-3-carboxamido)-N6-ethyl-5-oxo-N1-(2-oxo-1-(2-oxo-2-((1S,2S,3S,5R)-2,6,6-trimethylbicyclo[3.1.1]heptan-3-ylamino)ethyl)-1,2-dihydropyridin-3-yl)hexanediamide] | 150 to 600 nM | 3 to 5 | 1 to 10 ×10⁻⁶ cm/s
14 | CCNC(=O)C(=O)CC[C@H](NC(=O)c1csc2ccccc12)C(=O)Nc1cccn(CC(=O)NC23CCCC4CC(CCC42)C3)c1=O (stereo partly drawn) [Compound I-78, (S)-2-(benzo[b]thiophene-3-carboxamido)-N6-ethyl-N1-(1-(2-(4-homoisotwistane-3-amino)-2-oxoethyl)-2-oxo-1,2-dihydropyridin-3-yl)-5-oxohexanediamide] | 150 to 600 nM | 3 to 5 | 1 to 10 ×10⁻⁶ cm/s
15 | CCNC(=O)C(=O)CC[C@H](NC(=O)c1ccnn1C)C(=O)Nc1cccn(CC23CC4CC(CC(C4)C2)C3)c1=O [Compound I-81, (S)-N1-(1-(1-adamantylmethyl)-2-oxo-1,2-dihydropyridin-3-yl)-N6-ethyl-2-(1-methyl-1H-pyrazole-5-carboxamido)-5-oxohexanediamide] | 150 to 600 nM | 1 to 3 | < 1 ×10⁻⁶ cm/s
16 | CCNC(=O)C(=O)CC[C@H](NC(=O)c1snnc1CO)C(=O)Nc1cccn(CC2C3CC4CC(C3)CC2C4)c1=O (stereo partly drawn) [Compound I-84, (S)-N1-(1-(2-adamantylmethyl)-2-oxo-1,2-dihydropyridin-3-yl)-N6-ethyl-2-(4-(hydroxymethyl)-1,2,3-thiadiazole-5-carboxamido)-5-oxohexanediamide] | 150 to 600 nM | 1 to 3 | < 1 ×10⁻⁶ cm/s
17 | CCNC(=O)C(=O)CC[C@H](NC(=O)c1c(C)noc1C)C(=O)Nc1cccn(CC(=O)NC2C3CCCC2CC3)c1=O (stereo partly drawn) [Compound I-91, (2S)-N1-(1-(2-(bicyclo[3.2.1]octan-8-ylamino)-2-oxoethyl)-2-oxo-1,2-dihydropyridin-3-yl)-2-(3,5-dimethylisoxazole-4-carboxamido)-N6-ethyl-5-oxohexanediamide] | 150 to 600 nM | < 1 | 1 to 10 ×10⁻⁶ cm/s
18 | CCNC(=O)C(=O)CC[C@H](NC(=O)c1cncnc1C)C(=O)Nc1cccn(CC(=O)NC2C3CC4CC2CC(C(=O)O)(C4)C3)c1=O (stereo partly drawn) [Compound I-92, (S)-N1-ethyl-N6-(1-(2-(5-carboxy-2-aminoadamantane)-2-oxoethyl)-2-oxo-1,2-dihydropyridin-3-yl)-5-(4-methylpyrimidine-5-carboxamido)-2-oxohexanediamide] | 150 to 600 nM | < 1 | < 1 ×10⁻⁶ cm/s
19 | CCNC(=O)C(=O)CC[C@H](NC(=O)[C@@H]1CN2CCN1CC2)C(=O)Nc1cccn(CC(=O)NC2C3CC4CC(C3)CC2C4)c1=O (stereo partly drawn) [Compound I-94, (S)-2-((S)-1,4-diazabicyclo[2.2.2]octane-2-carboxamido)-N6-ethyl-N1-(1-(2-(2-adamantylamino)-2-oxoethyl)-2-oxo-1,2-dihydropyridin-3-yl)-5-oxohexanediamide] | 600 to 3500 nM | 1 to 3 | < 1 ×10⁻⁶ cm/s
